“Also recorded” adds a separate entry of the source.
Key:
[1] = test system: Staphylococcus aureus (ATCC 27217), Bacillus subtilis (ATCC 6633), Escherichia coli (strain ML-35); experiment: Solid-phase radial diffusion assay (signature model validation), bacteria panel; type: cell-based; details: pH 5.5 or pH 7.5, after 24h
Description: (§1) Standard radial diffusion assays were conducted using 10 μg of specified peptide: defensin HNP-1 (HNP); brazzein (BRZ); charybdotoxin (CTX); or metallothionein II (MTL). Recombinant brazzein reflecting the published 3-dimensional structure (1BRZ) as determined by nuclear magnetic resonance spectroscopy was kindly provided by Drs. J. L. Markley and F. M. Assadi-Porter, the University of Wisconsin 25. Charybdotoxin, metallothionein II, and defensin HNP-1 were obtained from commercial sources. Antimicrobial activity was assessed using a well-established solid-phase diffusion method as described by Tang et al., Infect. Immun. 70: 6524-6533 (2002). Assays included well characterized organisms: Staphylococcus aureus (ATCC 27217, Gram-positive coccus); Bacillus subtilis (ATCC 6633, Gram-positive bacillus); Escherichia coli (strain ML-35, Gram-negative bacillus); and Candida albicans (ATCC 36082, fungus). In brief, organisms were cultured to logarithmic phase and inoculated (10^6 colony forming units/ml) into buffered molecular-biology grade agarose at the indicated pH. Peptides resuspended in sterile deionized water were introduced into wells formed in the underlay, and incubated for 3h at 37° C. Nutrient-containing overlay medium was then applied, and assays incubated at 37° C. or 30° C. for bacteria or fungi, respectively. After 24h, zones of complete or partial inhibition were measured. All assays were repeated independently a minimum of two times at pH 5.5 (panels A-D) or pH 7.5 (panels E-H) to assess the influences of pH on peptide antimicrobial activities versus microorganisms. Histograms express mean (±standard deviation) zones of complete (blue) or incomplete (yellow) inhibition of growth. […] Note differences in scale.
(§2) These peptides were tested for antimicrobial activity against a panel of Gram-positive (Staphylococcus aureus. Bacillus subtilis) and Gram-negative (Escherichia coli) bacteria, and the fungus Candida albicans, using a well-established and sensitive in vitro assay [Antimicrobial activity was assessed using a well-established solid-phase diffusion method. Assays included well-characterized organisms: Staphylococcus aureus (ATCC 27217, Gram-positive); Bacillus subtilis (ATCC 6633, Gram-positive); Escherichia coli (strain ML-35, Gram-negative); and Candida albicans (ATCC 36082, fungus). In brief, organisms were cultured to logarithmic phase and inoculated at a density of 10^6 colony forming units/ml in buffered molecular grade agarose at the indicated pH. […] of peptide resuspended in sterile deionized water were introduced into wells formed in the underlay, and incubated for 3h at 37° C. […] After 24h, zones of complete or partial inhibition were measured. […]

[2] = test system: Candida albicans (ATCC 36082); experiment: Solid-phase radial diffusion assay (signature model validation), fungus; type: cell-based; details: C. albicans, pH 5.5 or pH 7.5, after 24h
Description: as §1, §2

[3] = test system: Staphylococcus aureus (ATCC 27217); experiment: Solid-phase antimicrobial assay of kinocidins; type: cell-based; details: 0.5 nmol/well
Description: (§3) Peptides (0.5 nmol) were introduced into wells in agarose plates buffered with MES (2.0 mM, pH 5.5) or PIPES (10.0 mM, pH 7.5). Antimicrobial activity was assessed as the zone of complete (blue) or partial (red) inhibition around the well. Abbreviations are: Native IL-8 (IL-8); IL-8α, (α); IL-8γ, (γ); IL-8α+IL-8γ (α+γ); RANTES, (RAN); GRO-α, (GRO); MCP-1, (MCP); lymphotactin, (LYM); platelet factor-4, (PF-4); and HNP-1, (HNP). Histograms are means±SEM (minimum n=2).
(§4) Briefly, the antimicrobial assays were performed against a panel of prototype human pathogens as previously detailed (Yoshimura, T., Matsushima, K., Tanaka, S., Robinson, E. A., Appella, E., Oppenheim, J. J. & Leonard, E. J. (1987) Proc Natl Acad Sci USA 84, 9233-7): Staphylococcus aureus (ATCC 27217; Gram-positive bacterium); Salmonella typhimurium (5996s; Gram-negative bacterium); and the fungus Candida albicans (ATCC 36082). Defensin HNP-1 was included in each assay as an internal control, and all assays were conducted a minimum of two independent times. Results of independent assays were analyzed using Wilcoxon Rank Sum analysis with Bonferroni correction for multiple comparisons.
(§5) For the Solid-Phase Assay, mid-logarithmic phase organisms were prepared, introduced into buffered agarose (PIPES [10 mM, pH 7.5] or MES [2.0 mM, pH 5.5]) to achieve final inocula of 10^6 CFU/ml, and poured into plates. Peptides (0.5 nmol/well [50 nmol/ml]) were added to wells in the seeded matrix, and incubated for 3h at 37° C. Nutrient overlay medium was applied, and assays incubated at 37° C. or 30° C. for bacteria or fungi, respectively. After 24h, zones of inhibition were measured, and results recorded as zones of complete or partial inhibition.

[4] = test system: Candida albicans (ATCC 36082); experiment: Solid-phase antimicrobial assay of kinocidins; type: cell-based; details: C. albicans, 0.5 nmol/well
Description: as §3, §4, §5

[5] = test system: Salmonella typhimurium (5996s); experiment: Solid-phase antimicrobial assay of kinocidins; type: cell-based; details: S. typhimurium (Gram-negative); pH 5.5 or 7.5, not separated; 0.5 nmol/well
Description: as §3, §4, §5

C. albicans ATCC 36082 = experiment: Solution-phase microbicidal assay; type: cell-based, Candida albicans; details: C. albicans; for microbicidal (fungicidal) activity: solution-phase, pH 5.5 and 7.5, 1 hour
Description: (§6) One million CFU of the indicated microorganism per milliliter were incubated with peptide (0.00125-20.0 nmol/ml) in either MES (2.0 mM, pH 5.5) or PIPES (10.0 mM, pH 7.5) for one hour at 37° C. Surviving CFU were enumerated and are described as change in the initial log 10 CFU. ∘, S. aureus ATCC 27217; ●, S. typhimurium strain 5990s; □, C. albicans ATCC 36082. Data are means±SD (minimum n=2).
as §4
(§7) To characterize IL-8's antimicrobial activity in more detail, a quantitative solution-phase assay was carried out at pH 5.5 and 7.5. Organisms were prepared and adjusted to 10^6 CFU/ml in PIPES or MES buffer as above but lacking agarose, and dispensed (5×10^4 CFU per 50 μl aliquot). Peptide (concentration range, 20-0.00125 nmol/ml) was introduced into the assay medium, and incubated for 1 hour at 37° C. After incubation, media were serially diluted and plated in triplicate for enumeration. […] IL-8 was also fungicidal for C. albicans at pH 7.5, with a 2-log reduction in surviving CFU over 1 hour at a concentration of 2.5 nmol/ml.

S. typhimurium = experiment: Solution-phase microbicidal assay; type: cell-based, Salmonella typhimurium; details: for microbicidal activity: solution-phase, pH 5.5 and 7.5, 1 hour
Description: as §6, §4, §7

S. aureus ATCC 27217 = experiment: Solution-phase microbicidal assay; type: cell-based, Staphylococcus aureus; details: for microbicidal activity: solution-phase, pH 5.5 and 7.5, 1 hour
Description: as §6, §4, §7

[6] = S. aureus (Gram-positive), pH 5.5 or 7.5, not separated

## metallothionein II: comparator predicted to lack antimicrobial activity, from commercial sources
[1]
  antimicrobial activity (zones of complete or partial inhibition): failed to exert antimicrobial activity
[1]; listed as Metallothionein II
  antimicrobial activity (zones of complete or partial inhibition): lacked antimicrobial activity
[2]
  antimicrobial activity (zones of complete or partial inhibition): failed to exert antimicrobial activity
[2]; listed as Metallothionein II
  antimicrobial activity (zones of complete or partial inhibition): lacked antimicrobial activity

## RANTES: recombinant human chemokine, obtained commercially
[3]; S. aureus, pH 7.5
  antimicrobial activity (zone of inhibition): more efficacious

## ANTEIIVKLSDGRELCLDP [IL-8γ, synthetic γ-core domain of IL-8]
[4]; pH 5.5 or 7.5, not separated
  antifungal activity (zone of inhibition): no detectable antimicrobial efficacy
[5]
  antimicrobial activity (zone of inhibition): no detectable antimicrobial efficacy
[3]; [6]
  antimicrobial activity (zone of inhibition): no detectable antimicrobial efficacy
C. albicans ATCC 36082
  microbicidal (fungicidal) activity: no measurable activity
S. typhimurium
  microbicidal activity: no measurable activity
S. aureus ATCC 27217
  microbicidal activity: no measurable activity

## IL-8: recombinant human chemokine interleukin-8, obtained commercially
[4]; pH 5.5
  antifungal activity (zone of inhibition): greater than any other kinocidin
[4]; pH 5.5 or 7.5, not separated
  antifungal activity (zone of inhibition): striking antifungal activity
[4]; pH 7.5
  antifungal activity (zone of inhibition): the only kinocidin with anti-candidal activity
[5]
  antimicrobial activity (zone of inhibition): equivalent to lymphotactin, but more efficacious than any other test kinocidin
[3]; S. aureus, pH 5.5
  antimicrobial activity (zone of inhibition): modest activity
C. albicans ATCC 36082; pH 7.5, 2.5 nmol/ml, over 1 hour
  reduction in surviving CFU: 2 log
C. albicans ATCC 36082
  microbicidal (fungicidal) activity: highly fungicidal
S. typhimurium; pH 7.5
  activity in solution phase: lacks activity
S. typhimurium
  microbicidal activity: did not exert microbicidal activity
S. aureus ATCC 27217; pH 7.5
  activity in solution phase: lacks activity
S. aureus ATCC 27217
  microbicidal activity: did not exert microbicidal activity

## brazzein: recombinant sweetener protein from Pentadiplandra (1BRZ) (QDKCKKVYENYPVSKCQLANQCNYDCKLDKHARSGECFYDEKRNLQCICDYCEY; UniProt P56552 1-54, looked up)
[1]
  antimicrobial activity (zones of complete or partial inhibition): exerted direct antimicrobial activity; also recorded: direct antimicrobial activities
[2]
  antimicrobial activity (zones of complete or partial inhibition): exerted direct antimicrobial activity; also recorded: direct antimicrobial activities

## charybdotoxin
[1]
  antimicrobial activity (zones of complete or partial inhibition): exerted direct antimicrobial activity; also recorded: direct antimicrobial activities
[2]
  antimicrobial activity (zones of complete or partial inhibition): exerted direct antimicrobial activity; also recorded: direct antimicrobial activities

## MCP-1: recombinant human chemokine, obtained commercially
[4]; pH 5.5 or 7.5, not separated
  antifungal activity (zone of inhibition): no measurable antifungal activity
[5]
  antimicrobial activity (zone of inhibition): significant activity
[3]; [6]
  antimicrobial activity (zone of inhibition): significant activity

B1: Lymphotactin: recombinant human chemokine, obtained commercially (protein, UniProt P47992 22-114, looked up)
Lymphotactin: VGSEVSDKRTCVSLTTQRLPVSRIKTYTITEGSLRAVIFITKRGLKVCADPQATWVRDVVRSMDRKSNTRNNMIQTKPTGTQQSTNTAVTLTG
[3]; S. aureus, pH 7.5
  antimicrobial activity (zone of inhibition): more efficacious

— patent publication US10329336B2, “Antimicrobial kinocidin compositions and methods of use” (LA Biomedical Research Institute at Harbor-UCLA Medical …, priority 2006, dated 2019)
